Consider 1 compound from patent US11866708B2, “Tailored modulation of gene regulation programs via functional enhancer RNA” (Board of Regents, The University of Texas System, priority 2019, dated 2024).

The test deals with TNFSF10. Put plainly: TNFSF10 and eRNA expression with TIC10 treatment. To be noted: TIC10 treatment 48 hours; FIG. 6F left. Type of test: cell-based, human.

The structures appear in SMILES notation.

Method: For the negative control experiment, 5 uM of TIC10 (SML1068, Sigma-Aldrich) was treated for 48 hrs to activate the apoptosis pathway by inducing the level of TNFSF10 expression.

With `Cc1ccccc1CN1C(=O)C2=C(CCN(Cc3ccccc3)C2)N2CCN=C12` [TIC10], the TNFSF10 expression entry was “induced TNFSF10 expression significantly” and the “expression of the virus inducible eRNAs associated with the TNFSF10 gene” value is “did not affect expression”.
